According to ChEMBL document CHEMBL1201862, “PubChem BioAssay data set” (2004):
Activity calls are given as the source filed them. Unless noted, no cut-off for these calls is given here.

Columns and labels:
[1] = molecular target: Sphingosine 1-phosphate receptor 5 (Homo sapiens, UniProt Q9H228); experiment: Late-stage fluorescence-based dose-response cell-based assay to identify agonists of the Sphingosine 1-Phosphate Receptor 4 (S1P4): Sphingosine 1-Phosphate Receptor 5 (S1P5) counterscreen assay. [Related pubchem assays (depositor defined):AID1509, AID1523, AID1563, AID1686, AID1701, AID1801, AID463107, AID463225, AID504400]; assay type: functional
Chain of Sphingosine 1-phosphate receptor 5 (Q9H228 whole entry): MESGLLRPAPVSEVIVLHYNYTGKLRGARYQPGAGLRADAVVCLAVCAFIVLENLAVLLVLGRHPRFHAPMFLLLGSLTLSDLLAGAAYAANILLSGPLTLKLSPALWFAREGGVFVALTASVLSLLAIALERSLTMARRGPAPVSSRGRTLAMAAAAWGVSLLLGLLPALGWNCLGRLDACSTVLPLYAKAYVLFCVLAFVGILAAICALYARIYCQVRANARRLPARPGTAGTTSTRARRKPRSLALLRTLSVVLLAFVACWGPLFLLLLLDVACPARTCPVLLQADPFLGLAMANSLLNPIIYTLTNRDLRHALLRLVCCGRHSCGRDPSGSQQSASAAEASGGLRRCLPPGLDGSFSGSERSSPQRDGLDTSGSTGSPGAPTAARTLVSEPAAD

[2] = molecular target: T1, Sphingosine 1-phosphate receptor 4 (Homo sapiens, UniProt O95977); experiment: potency of S1P4 activators – cell-based, fluorescence, synthesized compounds, late-stage follow-up (AID 463107); assay type: functional
T1 sequence (O95977 whole entry): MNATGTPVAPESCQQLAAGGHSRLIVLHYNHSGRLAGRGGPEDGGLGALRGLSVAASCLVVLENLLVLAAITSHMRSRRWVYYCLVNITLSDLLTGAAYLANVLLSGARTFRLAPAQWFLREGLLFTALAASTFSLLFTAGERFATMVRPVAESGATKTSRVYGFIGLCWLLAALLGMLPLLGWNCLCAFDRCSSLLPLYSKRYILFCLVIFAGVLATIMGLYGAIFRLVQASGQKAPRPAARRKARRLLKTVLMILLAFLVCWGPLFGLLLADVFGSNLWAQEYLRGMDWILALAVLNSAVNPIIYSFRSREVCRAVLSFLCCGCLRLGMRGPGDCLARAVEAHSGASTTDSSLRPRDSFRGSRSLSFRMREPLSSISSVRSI

[3] = molecular target: Sphingosine 1-phosphate receptor 1 (Homo sapiens, UniProt P21453); experiment: Late-stage fluorescence-based dose-response cell-based assay to identify agonists of the Sphingosine 1-Phosphate Receptor 4 (S1P4): Sphingosine 1-Phosphate Receptor 1 (S1P1) counterscreen assay. [Related pubchem assays (depositor defined):AID1509, AID1523, AID1563, AID1686, AID1701, AID1801, AID463107, AID463225, AID504400]; assay type: functional
[4] = molecular target: Sphingosine 1-phosphate receptor 2 (Homo sapiens, UniProt O95136); experiment: Late-stage fluorescence-based dose-response cell-based assay to identify agonists of the Sphingosine 1-Phosphate Receptor 4 (S1P4): Sphingosine 1-Phosphate Receptor 2 (S1P2) counterscreen assay. [Related pubchem assays (depositor defined):AID1509, AID1523, AID1563, AID1686, AID1701, AID1801, AID463107, AID463225, AID504400]; assay type: functional
[5] = molecular target: Sphingosine 1-phosphate receptor 3 (Homo sapiens, UniProt Q99500); experiment: Late-stage fluorescence-based dose-response cell-based assay to identify agonists of the Sphingosine 1-Phosphate Receptor 4 (S1P4): Sphingosine 1-Phosphate Receptor 3 (S1P3) counterscreen assay. [Related pubchem assays (depositor defined):AID1509, AID1523, AID1563, AID1686, AID1701, AID1801, AID463107, AID463225, AID504400]; assay type: functional
[6] = molecular target: T2, RNA-binding protein pos-1 (Caenorhabditis elegans, UniProt G5EF15); experiment: disruptors of C. elegans POS-1 RNA interaction – biochemical, fluorescence polarization, dose response (AID 1964);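 note: purified POS-1 fused to maltose binding protein made in E. coli; potency of compounds blocking POS-1 binding to fluorescent RNA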
T2 sequence (G5EF15 whole entry): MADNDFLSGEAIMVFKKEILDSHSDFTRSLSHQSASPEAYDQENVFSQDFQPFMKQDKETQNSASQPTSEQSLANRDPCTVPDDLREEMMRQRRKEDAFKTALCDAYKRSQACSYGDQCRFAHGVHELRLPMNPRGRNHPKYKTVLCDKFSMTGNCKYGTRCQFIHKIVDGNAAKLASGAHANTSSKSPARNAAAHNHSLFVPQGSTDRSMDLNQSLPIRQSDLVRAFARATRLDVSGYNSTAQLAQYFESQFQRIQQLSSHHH

[7] = molecular target: T3, Zinc finger protein mex-5 (Caenorhabditis elegans, UniProt Q9XUB2); experiment: potency of MEX-5 RNA-binding blockers – biochemical, C. elegans, fluorescence polarization, dose response (AID 1960)
T3 sequence (Q9XUB2 whole entry): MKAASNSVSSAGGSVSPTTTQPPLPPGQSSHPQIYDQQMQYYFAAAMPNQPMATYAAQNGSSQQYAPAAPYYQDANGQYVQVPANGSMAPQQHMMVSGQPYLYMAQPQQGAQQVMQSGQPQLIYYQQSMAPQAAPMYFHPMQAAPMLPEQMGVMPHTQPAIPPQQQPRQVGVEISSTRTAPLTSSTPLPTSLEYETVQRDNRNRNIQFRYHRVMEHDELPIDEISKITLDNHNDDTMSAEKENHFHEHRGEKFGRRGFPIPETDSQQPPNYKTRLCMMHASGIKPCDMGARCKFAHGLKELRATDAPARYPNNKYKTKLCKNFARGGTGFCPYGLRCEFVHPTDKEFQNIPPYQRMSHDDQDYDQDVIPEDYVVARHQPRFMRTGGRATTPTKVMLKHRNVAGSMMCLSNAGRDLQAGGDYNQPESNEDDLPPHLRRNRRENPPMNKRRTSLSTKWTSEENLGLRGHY

[8] = molecular target: Intestinal-type alkaline phosphatase (Homo sapiens, UniProt P09923); experiment: activation of human intestinal alkaline phosphatase – biochemical, dose response (AID 488873); assay type: functional
Chain of Intestinal-type alkaline phosphatase (Homo sapiens, UniProt P09923) (P09923 whole entry): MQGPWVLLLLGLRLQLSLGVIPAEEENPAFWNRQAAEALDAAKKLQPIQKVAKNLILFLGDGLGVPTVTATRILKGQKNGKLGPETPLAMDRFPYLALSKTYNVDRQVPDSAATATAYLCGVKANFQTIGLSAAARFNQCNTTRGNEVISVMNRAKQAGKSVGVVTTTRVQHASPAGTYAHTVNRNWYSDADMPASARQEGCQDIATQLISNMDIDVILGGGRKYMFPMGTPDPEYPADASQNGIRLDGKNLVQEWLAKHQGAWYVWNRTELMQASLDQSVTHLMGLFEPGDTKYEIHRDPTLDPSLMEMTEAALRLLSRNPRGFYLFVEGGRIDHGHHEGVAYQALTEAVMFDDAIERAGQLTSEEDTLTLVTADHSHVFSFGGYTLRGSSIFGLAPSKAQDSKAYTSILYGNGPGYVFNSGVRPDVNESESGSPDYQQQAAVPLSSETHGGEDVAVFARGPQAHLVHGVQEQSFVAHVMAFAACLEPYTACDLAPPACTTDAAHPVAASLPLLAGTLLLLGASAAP

[9] = molecular target: Intestinal-type alkaline phosphatase (Mus musculus, UniProt P24822); experiment: PubChem AID 488785; assay type: functional
[10] = molecular target: T4, Alkaline phosphatase, tissue-nonspecific isozyme (Homo sapiens, UniProt P05186); experiment: TNAP enzyme inhibition by screening hits, dose response, selectivity assay for mouse IAP inhibitor project, biochemical, human TNAP, uHTS hits (AID 488906); assay type: functional
T4 sequence (P05186 whole entry): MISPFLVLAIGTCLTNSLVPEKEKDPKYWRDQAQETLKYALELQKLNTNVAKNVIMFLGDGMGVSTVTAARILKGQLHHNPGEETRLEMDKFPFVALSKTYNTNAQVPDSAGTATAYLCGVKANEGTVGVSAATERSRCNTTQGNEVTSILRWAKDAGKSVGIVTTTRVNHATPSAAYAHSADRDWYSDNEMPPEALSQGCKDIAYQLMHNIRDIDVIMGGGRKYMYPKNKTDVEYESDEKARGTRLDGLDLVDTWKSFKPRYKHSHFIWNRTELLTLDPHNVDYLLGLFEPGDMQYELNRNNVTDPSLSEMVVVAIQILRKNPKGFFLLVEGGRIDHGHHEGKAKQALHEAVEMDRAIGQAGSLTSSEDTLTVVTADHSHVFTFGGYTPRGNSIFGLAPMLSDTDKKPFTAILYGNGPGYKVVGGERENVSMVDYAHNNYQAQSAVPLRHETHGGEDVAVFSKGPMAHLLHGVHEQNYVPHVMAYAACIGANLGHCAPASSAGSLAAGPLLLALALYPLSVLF

[11] = molecular target: T5, Voltage-gated N-type calcium channel alpha-1B subunit/Amyloid beta A4 precursor protein-binding family A member 1 (Homo sapiens, UniProt Q00975+Q02410); assay type: protein assay
T5 sequence (Q00975 whole entry): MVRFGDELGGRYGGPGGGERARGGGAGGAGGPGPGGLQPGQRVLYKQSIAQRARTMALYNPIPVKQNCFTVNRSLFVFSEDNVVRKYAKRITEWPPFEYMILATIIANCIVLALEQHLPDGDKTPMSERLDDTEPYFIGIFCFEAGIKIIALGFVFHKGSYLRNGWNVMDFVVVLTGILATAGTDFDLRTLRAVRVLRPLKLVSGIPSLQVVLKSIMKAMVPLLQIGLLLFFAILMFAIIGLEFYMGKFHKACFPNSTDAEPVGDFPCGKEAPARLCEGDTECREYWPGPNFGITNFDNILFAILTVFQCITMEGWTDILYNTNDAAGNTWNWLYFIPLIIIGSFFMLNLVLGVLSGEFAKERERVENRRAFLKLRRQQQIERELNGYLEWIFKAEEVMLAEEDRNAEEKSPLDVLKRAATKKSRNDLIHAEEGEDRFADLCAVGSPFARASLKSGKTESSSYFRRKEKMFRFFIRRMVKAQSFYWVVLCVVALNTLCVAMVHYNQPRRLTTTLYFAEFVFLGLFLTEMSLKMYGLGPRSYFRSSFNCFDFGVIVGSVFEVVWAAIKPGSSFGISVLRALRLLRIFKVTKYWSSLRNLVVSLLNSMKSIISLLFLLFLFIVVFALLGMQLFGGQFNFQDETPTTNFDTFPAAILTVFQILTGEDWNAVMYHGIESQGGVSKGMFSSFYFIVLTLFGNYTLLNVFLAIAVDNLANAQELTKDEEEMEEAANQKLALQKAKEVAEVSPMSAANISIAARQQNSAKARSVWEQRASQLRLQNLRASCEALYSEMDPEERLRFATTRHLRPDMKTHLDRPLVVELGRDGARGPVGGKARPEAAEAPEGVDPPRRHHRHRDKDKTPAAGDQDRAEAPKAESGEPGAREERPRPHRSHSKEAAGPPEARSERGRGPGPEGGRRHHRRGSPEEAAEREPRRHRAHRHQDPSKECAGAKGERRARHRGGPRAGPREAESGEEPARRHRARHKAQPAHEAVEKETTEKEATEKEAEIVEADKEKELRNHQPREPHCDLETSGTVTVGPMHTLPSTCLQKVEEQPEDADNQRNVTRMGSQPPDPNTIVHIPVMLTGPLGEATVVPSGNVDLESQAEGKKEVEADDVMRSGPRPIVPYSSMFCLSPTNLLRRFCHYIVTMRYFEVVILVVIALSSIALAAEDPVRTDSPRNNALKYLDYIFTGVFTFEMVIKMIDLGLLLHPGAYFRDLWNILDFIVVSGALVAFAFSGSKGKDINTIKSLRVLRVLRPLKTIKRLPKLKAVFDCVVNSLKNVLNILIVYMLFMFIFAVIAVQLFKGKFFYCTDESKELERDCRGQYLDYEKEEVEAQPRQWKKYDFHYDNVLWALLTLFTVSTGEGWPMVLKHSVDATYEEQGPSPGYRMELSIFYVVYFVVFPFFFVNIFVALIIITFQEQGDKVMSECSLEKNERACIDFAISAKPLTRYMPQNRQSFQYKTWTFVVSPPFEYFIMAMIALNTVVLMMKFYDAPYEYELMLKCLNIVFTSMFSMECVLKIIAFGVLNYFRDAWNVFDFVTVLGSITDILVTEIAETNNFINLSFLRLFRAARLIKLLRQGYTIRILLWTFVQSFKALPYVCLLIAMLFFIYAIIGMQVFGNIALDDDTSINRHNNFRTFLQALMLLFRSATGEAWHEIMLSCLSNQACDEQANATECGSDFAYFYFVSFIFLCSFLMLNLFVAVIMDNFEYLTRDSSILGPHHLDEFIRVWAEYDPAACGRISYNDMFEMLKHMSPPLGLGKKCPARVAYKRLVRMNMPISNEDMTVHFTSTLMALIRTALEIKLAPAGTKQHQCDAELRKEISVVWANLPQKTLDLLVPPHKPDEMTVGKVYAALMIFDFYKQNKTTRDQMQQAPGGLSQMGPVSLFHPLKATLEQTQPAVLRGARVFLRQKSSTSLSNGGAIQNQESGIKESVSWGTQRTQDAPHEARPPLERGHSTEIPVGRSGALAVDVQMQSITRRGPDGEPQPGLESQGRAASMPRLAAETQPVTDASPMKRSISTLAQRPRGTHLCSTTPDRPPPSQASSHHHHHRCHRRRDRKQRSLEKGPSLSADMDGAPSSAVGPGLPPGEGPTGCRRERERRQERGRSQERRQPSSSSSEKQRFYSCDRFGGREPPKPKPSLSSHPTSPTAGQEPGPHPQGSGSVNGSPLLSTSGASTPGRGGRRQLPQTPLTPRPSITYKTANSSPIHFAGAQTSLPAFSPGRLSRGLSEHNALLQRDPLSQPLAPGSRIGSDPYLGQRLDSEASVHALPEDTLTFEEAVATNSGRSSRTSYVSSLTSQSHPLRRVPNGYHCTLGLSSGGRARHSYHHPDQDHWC
T5 sequence (Q02410 whole entry): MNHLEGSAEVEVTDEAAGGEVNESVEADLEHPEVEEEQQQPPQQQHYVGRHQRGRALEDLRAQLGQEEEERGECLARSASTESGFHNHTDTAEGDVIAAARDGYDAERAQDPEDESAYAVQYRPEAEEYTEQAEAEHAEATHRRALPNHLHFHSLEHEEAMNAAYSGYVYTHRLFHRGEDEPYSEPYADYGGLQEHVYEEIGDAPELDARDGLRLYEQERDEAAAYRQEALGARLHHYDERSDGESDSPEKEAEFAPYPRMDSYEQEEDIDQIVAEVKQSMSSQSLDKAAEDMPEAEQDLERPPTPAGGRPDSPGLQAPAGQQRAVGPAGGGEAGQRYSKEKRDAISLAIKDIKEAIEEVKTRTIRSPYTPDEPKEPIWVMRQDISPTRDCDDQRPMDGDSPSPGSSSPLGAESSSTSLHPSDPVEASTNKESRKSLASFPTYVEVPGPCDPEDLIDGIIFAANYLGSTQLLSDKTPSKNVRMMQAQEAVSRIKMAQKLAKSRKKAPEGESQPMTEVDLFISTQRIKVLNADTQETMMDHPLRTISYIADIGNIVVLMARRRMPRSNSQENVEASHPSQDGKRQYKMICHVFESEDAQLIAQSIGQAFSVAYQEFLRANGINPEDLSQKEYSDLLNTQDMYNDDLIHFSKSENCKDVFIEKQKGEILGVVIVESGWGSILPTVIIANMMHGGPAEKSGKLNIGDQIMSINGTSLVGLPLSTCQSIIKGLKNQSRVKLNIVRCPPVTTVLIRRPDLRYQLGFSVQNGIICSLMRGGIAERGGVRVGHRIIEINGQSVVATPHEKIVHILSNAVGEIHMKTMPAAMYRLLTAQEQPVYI

[12] = molecular target: T5, Voltage-gated N-type calcium channel alpha-1B subunit/Amyloid beta A4 precursor protein-binding family A member 1; assay type: protein assay; remark: listed apart in the source
[13] = molecular target: Induced myeloid leukemia cell differentiation protein Mcl-1 (Homo sapiens, UniProt Q07820); assay type: functional
Chain of Induced myeloid leukemia cell differentiation protein Mcl-1 (Q07820 whole entry): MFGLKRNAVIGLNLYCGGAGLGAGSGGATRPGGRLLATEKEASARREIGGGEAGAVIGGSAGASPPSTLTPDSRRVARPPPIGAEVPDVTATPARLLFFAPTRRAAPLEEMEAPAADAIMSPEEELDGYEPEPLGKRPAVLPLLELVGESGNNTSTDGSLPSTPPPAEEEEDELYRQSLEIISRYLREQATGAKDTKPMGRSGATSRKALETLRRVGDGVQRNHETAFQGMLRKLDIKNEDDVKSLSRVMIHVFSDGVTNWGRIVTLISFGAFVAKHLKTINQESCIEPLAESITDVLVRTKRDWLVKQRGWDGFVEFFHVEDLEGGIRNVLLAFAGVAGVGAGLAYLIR

Hexokinase HKDC1 = molecular target: T6, Hexokinase HKDC1 (Homo sapiens, UniProt Q2TB90); experiment: activation of HKDC1 glucose phosphorylation – biochemical, W721R variant, dose response (AID 504730); assay type: functional
T6 sequence (Q2TB90 whole entry): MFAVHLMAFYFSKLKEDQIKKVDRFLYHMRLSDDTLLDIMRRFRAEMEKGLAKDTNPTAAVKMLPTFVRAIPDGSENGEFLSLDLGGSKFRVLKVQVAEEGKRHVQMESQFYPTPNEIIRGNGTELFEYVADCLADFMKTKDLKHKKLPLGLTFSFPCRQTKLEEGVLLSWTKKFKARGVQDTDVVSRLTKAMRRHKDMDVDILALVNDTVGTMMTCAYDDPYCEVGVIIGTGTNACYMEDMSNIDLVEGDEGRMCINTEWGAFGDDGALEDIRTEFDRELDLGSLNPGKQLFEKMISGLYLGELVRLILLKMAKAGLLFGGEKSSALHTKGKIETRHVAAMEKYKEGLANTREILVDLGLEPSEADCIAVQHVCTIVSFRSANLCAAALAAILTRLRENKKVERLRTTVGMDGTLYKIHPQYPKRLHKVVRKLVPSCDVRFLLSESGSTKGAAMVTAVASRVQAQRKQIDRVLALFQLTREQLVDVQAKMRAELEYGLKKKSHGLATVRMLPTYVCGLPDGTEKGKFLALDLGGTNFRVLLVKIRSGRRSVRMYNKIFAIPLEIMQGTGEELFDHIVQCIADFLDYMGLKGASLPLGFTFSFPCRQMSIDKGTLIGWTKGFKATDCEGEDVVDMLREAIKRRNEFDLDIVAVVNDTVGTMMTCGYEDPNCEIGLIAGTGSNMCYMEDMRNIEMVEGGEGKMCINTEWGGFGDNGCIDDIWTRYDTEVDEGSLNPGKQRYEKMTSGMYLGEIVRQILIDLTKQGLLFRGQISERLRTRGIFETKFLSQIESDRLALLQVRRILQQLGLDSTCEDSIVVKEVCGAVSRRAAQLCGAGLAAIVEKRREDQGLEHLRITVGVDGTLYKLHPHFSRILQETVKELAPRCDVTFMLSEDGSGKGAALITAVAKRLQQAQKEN

Hexokinase-1 = molecular target: T7, Hexokinase-1 (Homo sapiens, UniProt P19367); experiment: HK1 enzyme activation by HKDC1 hits – biochemical, selectivity assay for HKDC1 activator project, dose response (AID 504762); assay type: functional
T7 sequence (P19367 whole entry): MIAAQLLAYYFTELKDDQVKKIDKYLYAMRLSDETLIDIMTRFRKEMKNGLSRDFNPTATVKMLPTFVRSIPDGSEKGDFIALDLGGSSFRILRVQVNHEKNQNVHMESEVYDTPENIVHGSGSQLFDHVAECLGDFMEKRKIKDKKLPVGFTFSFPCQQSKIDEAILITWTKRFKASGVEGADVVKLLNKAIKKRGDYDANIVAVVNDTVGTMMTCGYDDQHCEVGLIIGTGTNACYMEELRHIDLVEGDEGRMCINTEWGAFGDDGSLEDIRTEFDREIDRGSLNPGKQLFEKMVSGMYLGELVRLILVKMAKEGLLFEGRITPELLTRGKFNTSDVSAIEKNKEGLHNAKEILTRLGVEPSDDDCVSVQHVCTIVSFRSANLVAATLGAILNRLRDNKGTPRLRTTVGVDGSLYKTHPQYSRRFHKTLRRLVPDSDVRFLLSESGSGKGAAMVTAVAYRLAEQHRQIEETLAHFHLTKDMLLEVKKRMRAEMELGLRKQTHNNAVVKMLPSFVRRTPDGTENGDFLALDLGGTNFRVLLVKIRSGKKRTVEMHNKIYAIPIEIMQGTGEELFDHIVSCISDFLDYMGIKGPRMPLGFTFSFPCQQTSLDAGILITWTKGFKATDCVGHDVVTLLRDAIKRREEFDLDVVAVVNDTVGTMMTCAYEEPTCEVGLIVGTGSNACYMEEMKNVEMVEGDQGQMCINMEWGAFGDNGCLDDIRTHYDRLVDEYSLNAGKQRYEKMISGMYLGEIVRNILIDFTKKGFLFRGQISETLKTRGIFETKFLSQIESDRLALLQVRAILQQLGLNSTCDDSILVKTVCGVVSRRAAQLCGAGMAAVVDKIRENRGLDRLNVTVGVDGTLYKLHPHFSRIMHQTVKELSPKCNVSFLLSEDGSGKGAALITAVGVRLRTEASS

[14] = molecular target: T8, Peroxisome proliferator-activated receptor gamma (Homo sapiens, UniProt P37231); experiment: competitive ligand displacement at PPARg – biochemical, TR-FRET, LanthaScreen, PPARg partial agonist project, dose response (AID 504446)
T8 sequence (P37231 whole entry): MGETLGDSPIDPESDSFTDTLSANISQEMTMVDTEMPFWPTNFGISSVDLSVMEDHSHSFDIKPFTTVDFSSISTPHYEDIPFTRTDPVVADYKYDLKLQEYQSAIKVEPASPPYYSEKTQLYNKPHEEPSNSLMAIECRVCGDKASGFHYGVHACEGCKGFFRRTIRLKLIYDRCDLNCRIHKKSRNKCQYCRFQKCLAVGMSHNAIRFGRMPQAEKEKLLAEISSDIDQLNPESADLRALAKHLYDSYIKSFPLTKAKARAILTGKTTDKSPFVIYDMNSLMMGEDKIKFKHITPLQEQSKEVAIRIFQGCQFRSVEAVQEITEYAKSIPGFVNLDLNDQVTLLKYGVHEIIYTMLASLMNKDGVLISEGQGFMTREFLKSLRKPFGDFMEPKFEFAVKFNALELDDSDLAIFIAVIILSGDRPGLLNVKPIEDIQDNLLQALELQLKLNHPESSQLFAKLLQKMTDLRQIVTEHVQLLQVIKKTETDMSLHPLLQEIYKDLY

[15] = molecular target: T8, Peroxisome proliferator-activated receptor gamma; experiment: PPARg transcriptional activation, reporter cells – cell-based, luminescence, assay provider, dose response (AID 504447); assay type: functional
[16] = molecular target: Peroxisome proliferator-activated receptor alpha (Homo sapiens, UniProt Q07869); experiment: Late stage assay provider counterscreen for partial agonists of the peroxisome proliferator-activated receptor gamma (PPARg): Luminescence-based cell-based dose response assay for partial agonists of the peroxisome proliferator-activated receptor alpha (PPARA). [Related pubchem assays (depositor defined):AID1051, AID1300, AID1319, AID1679, AID1808, AID504446, AID504447, AID504452, AID504453, AID631]; assay type: functional
[17] = molecular target: Runt-related transcription factor 1/Core-binding factor subunit beta (Homo sapiens, UniProt Q01196+Q13951); experiment: Confirmation of compounds inhibiting the binding between the RUNX1 Runt domain and CBFb-SMMHC via a fluorescence resonance energy transfer (FRET) assay. [Related pubchem assays (depositor defined):AID1434, AID1438, AID1496, AID1550, AID1645]; assay type: protein assay

C/N=C1\SC(=Cc2cc(C)n(Cc3c(F)cccc3F)c2C)C(=O)N1OC
EC50 [1]: 0.339 µM (active)
EC50 [2]: 0.0886 µM (active)
EC50 [3]: 0.113 µM (active)
EC50 [4]: > 50 µM (inactive)
EC50 [5]: > 50 µM (inactive)

O=C(O)Cc1ccc(O)c(O)c1 [3,4-DIHYDROXYPHENYLACETIC ACID]
EC50 [6]: 49.8 µM (active)
EC50 [7]: 28.9 µM (active)
EC50 [8]: > 100 µM (inactive)
IC50 [9]: 4.17 µM (active)
IC50 [10]: > 100 µM (inactive)

CC(=O)Nc1ccc(C2=NN=C(Nc3ccc(S(=O)(=O)N4CCOCC4)cc3)SC2)cc1
IC50 [11]: 13.8 µM (active)
IC50 [12]: > 50 µM (inactive)
IC50 [13]: 1.61 µM (active)
EC50 (Hexokinase HKDC1): 7.92 µM (active)
EC50 (Hexokinase-1): 7.65 µM (active)

O=C(O)CCN1C(=O)/C(=C\c2cccc(OCc3ccccc3)c2)SC1=S
IC50 [14]: 0.276 µM (active)
EC50 [15]: 1.5 µM (active)
EC50 [16]: > 3 µM (inactive)

CCc1ccc(S(=O)(=O)Nc2ccc(-c3nc4cccnc4s3)cc2)s1
IC50 [17]: > 100 µM (inactive)
